Assay results taken from article PMC7153038, “Pharmacologic inhibition of RGD‐binding integrins ameliorates fibrosis and improves function following kidney injury” (Physiological Reports, 2020).

Tests used:
[1] = target: T1, integrin αvβ8 (Homo sapiens, UniProt P06756+P26012); test: integrin αvβ8-mediated attachment of transfected HEK-293 cells to LAP; assay type: cell-based; conditions: mean and SD, at least 3 independent assays; transfected HEK-293, LAP ligand; read-out: IC50, inhibition of αvβ8-mediated cell attachment
T1 construct: expressed in transfected cells
Experimental: (§1) The RGD peptidomimetic CWHM‐12 was synthesized as described in detail previously (Henderson et al., 2013). A close structural analog of this compound with improved oral bioavailability, CWHM‐680, was also synthesized at Saint Louis University. Potency for the compounds in blocking cell attachment mediated by integrins αvβ3, αvβ5, and αvβ6 was measured as previously described (Henderson et al., 2013). Potency for blocking cell attachment mediated by integrins αvβ1, αvβ8, and α8β1 was measured using modifications of this method which are briefly summarized as follows: To assess CWHM‐12 and CWHM‐680 effects on cellular αvβ1 function, we varied its concentration in an assay measuring binding of HEK‐293 cells, which naturally express this integrin (Nagarajan et al., 2007), to the surface of 96‐well plates coated with purified recombinant human TGFβ‐1 latency‐associated peptide (R&D Systems). To assess the effect on cellular αvβ8 function, we performed the assay with the same LAP ligand but with HEK‐293 cells which had been stably transfected to overexpress this integrin. To assess the effect on cellular α8β1 function, we performed the assay using HEK‐293 cells, which had been stably transfected to overexpress this integrin and used purified recombinant mouse nephronectin as the immobilized ligand (R&D Systems). […]

[2] = system: integrin αIIbβ3; design: method as in Henderson et al., 2013; conditions: no significant activity; ref Henderson et al., 2013; read-out: activity against integrin αIIbβ3; cited from earlier work
[3] = target: T2, integrin α8β1 (Homo sapiens, UniProt P05556+P53708); test: integrin α8β1-mediated attachment of transfected HEK-293 cells to mouse nephronectin; assay type: cell-based; conditions: mean and SD, at least 3 independent assays; transfected HEK-293, nephronectin; read-out: IC50, inhibition of α8β1-mediated cell attachment
T2 construct: expressed in transfected cells
Experimental: as §1

[4] = plasma compound concentration by LC/MS/MS; assay type: in vivo, mouse; conditions: 100 mg/kg per day s.c. by Alzet minipump
Experimental: (§2) Alzet osmotic minipumps (Cupertino, CA) were implanted subcutaneously in 8‐ to 10‐week‐old wild‐type male ICR outbred mice (Envigo) one day prior to induction of kidney injury to deliver vehicle (DMSO/H2O 1:1) or CWHM‐12 at a dose of 100 mg/kg per day. A single 5 mg/kg dose of aristolochic acid I sodium salt (Sigma‐Aldrich, A9451) in PBS was administered intraperitoneally to induce kidney injury, and mice were monitored daily for 27 days thereafter. Control (uninjured) mice were injected with an equal volume of PBS. Blood was obtained by maxillary vein puncture on days 0, 5 (peak injury), and 28 (study endpoint). For testing CWHM‐680, oral gavage (100 mg/kg per day) was started one day prior to injection of aristolochic acid I sodium salt and continued once daily until the study endpoint. Blood was obtained at days 0, 7, and 23 (study endpoint). […] Serum creatinine was measured by liquid chromatography–mass spectrometry (LC–MS/MS) at the University of Alabama O’Brien Center Bioanalytical Core. CWHM‐12 and CWHM‐680 concentrations were measured in plasma samples by liquid chromatography–tandem mass spectrometry (LC/MS/MS) using compound spiked into control plasma as a standard. All experiments were performed under protocols approved by the Institutional Animal Care and Use Committee at St. Louis University.

[5] = observation of deleterious effects in treated animals; assay type: in vivo, mouse; conditions: 100 mg/kg/day s.c. minipump, 28 days
Experimental: as §2

[6] = system: Collagen 1 protein in kidney; test: aristolochic acid kidney injury model, Collagen 1 Western blot; assay type: in vivo, mouse; conditions: AA-injured, 100 mg/kg/day s.c. minipump
Experimental: as §2, with “University. […]” for “University.”

[7] = target: integrin αvβ5 (Homo sapiens, UniProt P06756+P18084); test: integrin αvβ5-mediated cell attachment to ligand; assay type: cell-based; conditions: mean and SD, at least 3 independent assays; read-out: IC50, inhibition of αvβ5-mediated cell attachment
Experimental: as §1

[8] = target: T3, integrin α5β1 (Homo sapiens, UniProt P05556+P08648); test: integrin α5β1-mediated attachment of K562 cells to human plasma fibronectin; assay type: cell-based; conditions: mean and SD, at least 3 independent assays, read-out: IC50, inhibition of α5β1-mediated cell attachment
T3 construct: K562 cells, which naturally express this integrin; endogenous in cells; host or cells: K562
T3 sequence (P08648 42-894 limits assumed): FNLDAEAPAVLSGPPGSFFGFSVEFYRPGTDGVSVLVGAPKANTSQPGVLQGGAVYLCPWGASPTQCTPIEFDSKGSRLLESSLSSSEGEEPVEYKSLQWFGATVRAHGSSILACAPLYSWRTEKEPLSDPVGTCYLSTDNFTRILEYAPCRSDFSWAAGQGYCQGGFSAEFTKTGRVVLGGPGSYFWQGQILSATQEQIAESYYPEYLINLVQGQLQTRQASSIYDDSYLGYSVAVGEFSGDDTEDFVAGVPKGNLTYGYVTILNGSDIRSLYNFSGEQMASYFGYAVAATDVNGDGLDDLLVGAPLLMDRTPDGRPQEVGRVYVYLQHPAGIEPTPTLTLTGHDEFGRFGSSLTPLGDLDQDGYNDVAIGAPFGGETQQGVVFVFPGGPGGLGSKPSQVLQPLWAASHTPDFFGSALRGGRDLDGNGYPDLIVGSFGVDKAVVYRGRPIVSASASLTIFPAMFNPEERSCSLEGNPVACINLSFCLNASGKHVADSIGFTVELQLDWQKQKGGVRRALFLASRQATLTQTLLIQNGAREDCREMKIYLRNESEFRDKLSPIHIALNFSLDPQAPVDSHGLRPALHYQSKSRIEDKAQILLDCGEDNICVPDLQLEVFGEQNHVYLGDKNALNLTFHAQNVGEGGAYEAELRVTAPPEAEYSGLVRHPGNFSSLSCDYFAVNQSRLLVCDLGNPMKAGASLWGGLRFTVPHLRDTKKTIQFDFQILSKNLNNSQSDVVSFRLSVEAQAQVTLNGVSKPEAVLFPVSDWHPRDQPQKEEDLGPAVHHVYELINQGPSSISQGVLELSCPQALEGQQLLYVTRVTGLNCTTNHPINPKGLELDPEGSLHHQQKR
T3 sequence (P08648 895-1049 partner limits assumed): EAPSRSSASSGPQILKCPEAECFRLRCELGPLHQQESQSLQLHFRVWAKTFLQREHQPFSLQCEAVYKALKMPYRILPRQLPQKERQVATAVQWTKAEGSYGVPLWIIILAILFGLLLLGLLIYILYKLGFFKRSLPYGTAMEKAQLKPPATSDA
T3 sequence (P05556 21-798): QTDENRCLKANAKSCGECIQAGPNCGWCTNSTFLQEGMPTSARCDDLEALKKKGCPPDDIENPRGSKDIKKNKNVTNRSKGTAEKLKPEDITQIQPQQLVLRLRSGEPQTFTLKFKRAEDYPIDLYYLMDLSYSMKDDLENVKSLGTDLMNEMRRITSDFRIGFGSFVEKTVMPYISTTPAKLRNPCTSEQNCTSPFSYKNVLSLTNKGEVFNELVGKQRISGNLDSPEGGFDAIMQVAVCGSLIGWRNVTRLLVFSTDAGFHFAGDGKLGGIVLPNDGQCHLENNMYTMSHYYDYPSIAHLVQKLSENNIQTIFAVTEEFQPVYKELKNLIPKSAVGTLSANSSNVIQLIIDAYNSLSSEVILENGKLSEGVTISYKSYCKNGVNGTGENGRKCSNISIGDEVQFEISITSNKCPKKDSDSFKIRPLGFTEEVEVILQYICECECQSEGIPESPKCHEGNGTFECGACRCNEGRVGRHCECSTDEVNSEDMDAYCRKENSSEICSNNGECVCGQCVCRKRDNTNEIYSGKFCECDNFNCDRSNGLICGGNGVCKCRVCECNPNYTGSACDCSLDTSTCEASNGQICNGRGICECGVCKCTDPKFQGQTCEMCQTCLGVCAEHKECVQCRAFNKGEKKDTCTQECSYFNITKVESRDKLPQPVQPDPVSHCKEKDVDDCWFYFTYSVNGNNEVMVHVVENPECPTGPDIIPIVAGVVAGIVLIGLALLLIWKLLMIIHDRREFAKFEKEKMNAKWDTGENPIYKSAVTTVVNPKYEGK

Sequence of integrin αvβ5 (P06756 31-889 limits assumed): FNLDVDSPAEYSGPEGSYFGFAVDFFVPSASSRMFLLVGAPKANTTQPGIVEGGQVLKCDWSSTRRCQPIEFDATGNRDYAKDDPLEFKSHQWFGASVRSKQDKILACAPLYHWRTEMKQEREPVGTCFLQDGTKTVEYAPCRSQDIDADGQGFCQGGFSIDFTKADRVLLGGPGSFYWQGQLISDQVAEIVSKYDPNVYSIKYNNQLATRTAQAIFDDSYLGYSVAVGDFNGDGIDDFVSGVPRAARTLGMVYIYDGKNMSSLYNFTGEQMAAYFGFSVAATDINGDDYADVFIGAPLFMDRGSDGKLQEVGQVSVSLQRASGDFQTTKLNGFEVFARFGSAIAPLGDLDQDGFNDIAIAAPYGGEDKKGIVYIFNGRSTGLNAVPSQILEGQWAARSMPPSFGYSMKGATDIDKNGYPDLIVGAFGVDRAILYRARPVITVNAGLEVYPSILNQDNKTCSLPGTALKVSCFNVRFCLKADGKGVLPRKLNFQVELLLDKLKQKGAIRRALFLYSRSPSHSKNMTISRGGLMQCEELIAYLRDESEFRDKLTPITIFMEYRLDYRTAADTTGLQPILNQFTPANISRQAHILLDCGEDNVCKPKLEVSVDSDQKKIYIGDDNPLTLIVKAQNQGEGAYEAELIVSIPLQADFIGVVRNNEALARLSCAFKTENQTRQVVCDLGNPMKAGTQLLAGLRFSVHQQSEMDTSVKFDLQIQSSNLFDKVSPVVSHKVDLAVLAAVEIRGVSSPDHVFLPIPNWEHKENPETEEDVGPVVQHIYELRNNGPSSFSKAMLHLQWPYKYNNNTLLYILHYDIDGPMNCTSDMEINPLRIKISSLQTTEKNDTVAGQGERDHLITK
Sequence of integrin αvβ5 (P06756 891-1048 partner limits assumed): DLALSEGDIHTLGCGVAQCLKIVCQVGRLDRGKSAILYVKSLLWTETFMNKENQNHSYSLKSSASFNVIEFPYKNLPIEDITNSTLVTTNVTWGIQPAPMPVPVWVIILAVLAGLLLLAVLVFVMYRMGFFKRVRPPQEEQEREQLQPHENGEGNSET
Sequence of integrin αvβ5 (P18084 24-799): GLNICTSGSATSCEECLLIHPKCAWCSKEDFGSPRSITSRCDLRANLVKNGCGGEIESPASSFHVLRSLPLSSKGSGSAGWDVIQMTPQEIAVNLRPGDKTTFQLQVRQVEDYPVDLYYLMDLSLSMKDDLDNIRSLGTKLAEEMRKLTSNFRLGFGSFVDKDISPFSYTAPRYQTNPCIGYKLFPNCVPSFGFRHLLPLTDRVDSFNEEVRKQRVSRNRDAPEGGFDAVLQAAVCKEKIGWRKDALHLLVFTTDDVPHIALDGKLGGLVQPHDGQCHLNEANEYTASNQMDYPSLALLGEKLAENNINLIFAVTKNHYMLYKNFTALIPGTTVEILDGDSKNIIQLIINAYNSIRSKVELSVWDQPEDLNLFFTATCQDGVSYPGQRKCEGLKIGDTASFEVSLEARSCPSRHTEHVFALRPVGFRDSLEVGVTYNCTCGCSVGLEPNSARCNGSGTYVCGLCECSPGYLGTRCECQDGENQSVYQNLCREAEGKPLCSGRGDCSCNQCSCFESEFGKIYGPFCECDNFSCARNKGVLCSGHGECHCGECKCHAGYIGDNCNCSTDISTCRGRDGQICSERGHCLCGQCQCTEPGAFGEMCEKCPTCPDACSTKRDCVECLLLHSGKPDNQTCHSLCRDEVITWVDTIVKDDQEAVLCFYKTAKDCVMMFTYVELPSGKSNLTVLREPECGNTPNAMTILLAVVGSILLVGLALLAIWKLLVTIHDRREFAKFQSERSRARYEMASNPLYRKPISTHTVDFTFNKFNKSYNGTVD
T1 sequence (P06756 31-889 limits assumed): as the sequence (P06756 31-889 limits assumed) above
T1 sequence (P06756 891-1048 partner limits assumed): as the sequence (P06756 891-1048 partner limits assumed) above
T1 sequence (P26012 43-769): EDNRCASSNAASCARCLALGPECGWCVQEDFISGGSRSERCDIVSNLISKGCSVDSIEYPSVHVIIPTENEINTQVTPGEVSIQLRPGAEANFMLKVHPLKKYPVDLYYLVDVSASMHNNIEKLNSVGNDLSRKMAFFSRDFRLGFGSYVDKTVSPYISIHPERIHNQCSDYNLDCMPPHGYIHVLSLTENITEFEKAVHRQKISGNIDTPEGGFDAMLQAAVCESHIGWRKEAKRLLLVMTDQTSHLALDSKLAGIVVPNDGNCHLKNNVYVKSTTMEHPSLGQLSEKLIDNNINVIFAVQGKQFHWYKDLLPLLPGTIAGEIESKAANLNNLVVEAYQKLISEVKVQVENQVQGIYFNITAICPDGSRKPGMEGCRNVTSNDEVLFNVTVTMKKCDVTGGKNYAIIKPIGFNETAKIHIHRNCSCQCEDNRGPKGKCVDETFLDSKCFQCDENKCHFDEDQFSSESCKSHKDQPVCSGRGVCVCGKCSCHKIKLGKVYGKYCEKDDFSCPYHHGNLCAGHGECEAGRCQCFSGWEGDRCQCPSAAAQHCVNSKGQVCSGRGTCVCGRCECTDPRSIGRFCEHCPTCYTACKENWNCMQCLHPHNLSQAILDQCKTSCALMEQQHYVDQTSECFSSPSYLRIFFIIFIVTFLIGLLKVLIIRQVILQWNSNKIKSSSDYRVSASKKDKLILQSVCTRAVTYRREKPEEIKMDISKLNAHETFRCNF

For `CC(C)(C)c1cc(Br)cc([C@H](CC(=O)O)NC(=O)CNC(=O)c2cc(O)cc(NC3=NCC(O)CN3)c2)c1` (stereo partly drawn) [CWHM‐12], the IC50 [1] is listed as 5.8 ± 2.3 nM, the IC50 [2] is listed as > 5000 nM and the IC50 [3] is listed as 35 ± 16 nM. The “mean steady plasma drug concentration” value [4] was “approximately 5 µg/ml”, the “obvious deleterious effects in treated animals” value [5] was “did not observe obvious deleterious effects” and the “Collagen 1 protein reduction by Western blot compared with vehicle” value ([6]; day 27) was “threefold”. For the same molecule, the “Collagen 1 densitometry normalized to HDAC2” value ([6]; vehicle 2.14 ± 0.39) was 0.719 ± 0.13 arbitrary units, the IC50 [7] was 47 ± 26 nM and the IC50 [8] was 8 ± 3.9 nM.
